Laboratory results published in PubChem BioAssay (NCI).
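Briefly, cells in 96-well plates were exposed to five compound concentrations for 48 h, and endpoints were estimated by linear interpolation. TGI marks complete inhibition of growth.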

Assays:
Assay in all cases: DTP human tumour cell line panel, 48 h
[1] = test system: CAKI-1 renal
[2] = test system: HCT-116 colon
[3] = test system: HCT-15 colon
[4] = test system: HOP-62 NSCLC
[5] = test system: NCI-H522 lung
[6] = test system: NCI/ADR-RES ovarian
[7] = test system: OVCAR-8 ovarian
[8] = test system: SK-OV-3 ovarian
[9] = test system: SN12C renal
[10] = test system: SNB-75 CNS
[11] = test system: UO-31 renal
[12] = test system: 786-0 renal
[13] = test system: T-47D breast

Compound | TGI [1] | TGI [2] | TGI [3] | TGI [4] | TGI [5] | TGI [6] | TGI [7] | TGI [8] | TGI [9] | TGI [10] | TGI [11] | TGI [12] | TGI [13]
CC1CC(C)(O)C2C3(C)CCCC2(COC3=O)C12CCC1(CCOC1=O)O2 (centres undefined) | > 250 µM | > 250 µM | > 250 µM | > 250 µM | > 250 µM | > 250 µM | > 250 µM | > 250 µM | > 250 µM | > 250 µM | > 250 µM | – | –
Cc1csc2nc(-c3cc([N+](=O)[O-])c(Cl)cc3Cl)c(/C=N/N=C(N)N)n12 | 29.8 µM | 39.5 µM | 45.2 µM | 35 µM | 29.4 µM | 32 µM | 36.1 µM | – | 29.8 µM | – | 29.4 µM | 49.3 µM | 33.1 µM
COC(=O)[C@]12CC[C@H]3CN(S(=O)(=O)c4ccc(C)cc4)[C@H]([C@H]31)[C@H](c1ccco1)N2S(=O)(=O)c1ccc(C)cc1 | > 100 µM | > 100 µM | > 100 µM | > 100 µM | > 100 µM | > 100 µM | > 100 µM | > 100 µM | > 100 µM | – | > 100 µM | > 100 µM | 49.5 µM
CN(C)CCC(=O)[C@@]1(O)CC[C@H]2[C@@H]3CC=C4C[C@@H](O)CC[C@]4(C)[C@H]3CC[C@@]21C | 34.6 µM | 32.6 µM | 45.1 µM | 30.6 µM | 25.3 µM | 72.1 µM | 40 µM | > 66.8 µM | 32.2 µM | 29.5 µM | 31.7 µM | 13.6 µM | 23.5 µM
CCCCCCCCCCCCCCCCCCN(C)CC(COC)OP(=O)([O-])OCC[N+](C)(C)C (centres undefined) | 5.27 µM | 11.8 µM | 13.6 µM | 5.17 µM | 4.22 µM | 33.3 µM | 14.2 µM | 25.1 µM | 14.6 µM | 3.68 µM | 20.2 µM | 2.57 µM | 32.7 µM
O=C1c2cc3c(cc2[C@@H]2C(O)[C@H]4O[C@H]4C4CCN1C42)OCO3 (some centres undefined) | > 37.5 µM | > 37.5 µM | > 37.5 µM | > 37.5 µM | > 37.5 µM | – | > 37.5 µM | > 37.5 µM | > 37.5 µM | – | > 37.5 µM | – | –
NC1=NC(c2ccc(Cl)cc2)=CC(c2cccc(Cl)c2)S1 (centres undefined) | 92.5 µM | > 100 µM | 33.2 µM | > 100 µM | 55.8 µM | > 100 µM | > 100 µM | > 100 µM | 85.2 µM | – | 84.6 µM | > 100 µM | > 100 µM
c1ccc(-c2cc3nc4ccccc4nc3cc(-c3ccccc3)[nH][nH]2)cc1 | > 100 µM | > 100 µM | > 100 µM | 66.9 µM | > 100 µM | > 100 µM | > 100 µM | 39.5 µM | > 100 µM | 99.1 µM | > 100 µM | > 100 µM | > 100 µM
CCn1c2ccccc2c2ccc(C3C4C(=O)N(c5cccc6ccccc56)C(=O)C4ON3C(C(N)=O)c3ccccc3)cc21 (centres undefined) | 11.3 µM | > 25 µM | > 25 µM | > 25 µM | > 25 µM | > 25 µM | > 25 µM | > 25 µM | > 25 µM | > 25 µM | > 25 µM | > 25 µM | > 25 µM
C/C=C\C1OC1(C)c1cc(=O)c2c(C)cc3c(c2o1)C(=O)c1c(O)c(C2CC(C)(N(C)C)C(OC(C)=O)C(C)O2)cc(C2CC(N(C)C)C(O)C(C)O2)c1C3=O (centres undefined) | 0.0431 µM | 0.0429 µM | 0.0291 µM | 0.0121 µM | 0.00964 µM | – | 0.0177 µM | 0.0498 µM | 0.0134 µM | 0.0067 µM | 0.0106 µM | 0.0158 µM | 0.0324 µM
